# Data taken from patent US5985603A, “P2x receptor DNA and protein sequence” (Glaxo Group Limited, priority 1994, dated 1999).
# What was measured:
# mouse vas deferens = conditions: cited from earlier work
# [1] = molecular target: T1, rat superior cervical ganglion P2X receptor (clone 3) (Rattus norvegicus, UniProt P51577); test: functional properties of cloned P2X receptors (electrical recordings): clone 3; type: cell-based
# T1 construct: The insert appeared to be a full length cDNA; expressed in transfected cells; host or cells: HEK293 cells transfected with pcDNA3 construct p464 (also oocytes injected with in vitro transcribed RNA)
# T1 sequence (P51577 1-388): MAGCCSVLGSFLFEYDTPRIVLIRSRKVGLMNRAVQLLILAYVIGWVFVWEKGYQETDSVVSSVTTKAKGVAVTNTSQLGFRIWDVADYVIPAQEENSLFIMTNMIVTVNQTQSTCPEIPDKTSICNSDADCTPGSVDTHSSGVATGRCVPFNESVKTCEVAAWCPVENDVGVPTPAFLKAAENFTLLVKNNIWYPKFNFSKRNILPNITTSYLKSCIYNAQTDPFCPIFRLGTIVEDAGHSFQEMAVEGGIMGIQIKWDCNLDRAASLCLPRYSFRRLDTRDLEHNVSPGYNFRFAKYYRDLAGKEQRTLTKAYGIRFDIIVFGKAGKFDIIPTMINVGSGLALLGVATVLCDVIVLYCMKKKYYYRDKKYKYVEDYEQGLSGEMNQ
# Description: (§1) HEK 293 cells were transfected by the lipofectin method (Felgner et al., Proc. Nat'l. Acad. Sci. USA 84 7413-7417 (1987)) with P2X -plasmid. DNA concentration used was 1 mg/2 ml medium placed into a 35 mm petri dish containing four 11 mm diameter coverslips on which HEK cells were placed at 10,000 cells per coverslip. […] Currents were recorded from HEK 293 cells using whole-cell recording methods and the AXOPATCH™ 200 amplifier (Axon Instruments); patch pipettes (5 M.OMEGA.) contained (mM) Cs or K aspartate 140, NaCl 5, EGTA 11, HEPES 5. The external solution was (mM) NaCl 150, KCl2, CaCl2 2, MgCl2 1, HEPES 5 and glucose 11; the pH and osmolarity of both solutions were maintained at 7.3 and 305 mosmol/l respectively. All recordings performed at room temperature. Data acquisition and analysis were performed using pCLAMP™ and AXOGRAPH™ software (Axon Instruments). […] The pH and osmolarity of the solutions were 7.4 and 295 mosmol/l respectively. For single channel measurements, a […]™ 500 amplifier and outside-out recording methods were used (Adelman et al., Neuron 9 209-216 (1992)). Wax-coated patch pipettes (5-10 M.OMEGA.) contained (mM) K-gluconate 115, HEPES 5, BAPTA 5 and MgCl2 0.5, external solution was 96 mM NaCl, 2 mM KCl, 1.8 mM CaCl2, 1 mM MgCl2, 5 mM Hepes pH 7.6, and 5 mM sodium pyruvate.
# (§2) The functional characterisation of the clone illustrated in FIG. 2 (referred to herein as clone 3) was carried out by electrical recordings from transfected HEK293 cells and from oocytes injected with the in vitro transcribed RNA, as described in Example 4 for the rat vas deferens P2X receptor. Table A summarizes the main properties of clone 3 as compared to those of rat vas/human bladder cDNA clone, and the PC12 cDNA clone (provided by David Julius and Tony Brake of the University of California at San Francisco).
# PC12 P2X receptor = molecular target: T2, PC12 P2X receptor (Rattus norvegicus, UniProt P49653); test: functional properties of cloned P2X receptors (electrical recordings): PC12; type: cell-based
# T2 construct: host or cells: HEK293 cells (oocytes are also named for the functional characterisation of clone 3)
# T2 sequence (P49653 1-472): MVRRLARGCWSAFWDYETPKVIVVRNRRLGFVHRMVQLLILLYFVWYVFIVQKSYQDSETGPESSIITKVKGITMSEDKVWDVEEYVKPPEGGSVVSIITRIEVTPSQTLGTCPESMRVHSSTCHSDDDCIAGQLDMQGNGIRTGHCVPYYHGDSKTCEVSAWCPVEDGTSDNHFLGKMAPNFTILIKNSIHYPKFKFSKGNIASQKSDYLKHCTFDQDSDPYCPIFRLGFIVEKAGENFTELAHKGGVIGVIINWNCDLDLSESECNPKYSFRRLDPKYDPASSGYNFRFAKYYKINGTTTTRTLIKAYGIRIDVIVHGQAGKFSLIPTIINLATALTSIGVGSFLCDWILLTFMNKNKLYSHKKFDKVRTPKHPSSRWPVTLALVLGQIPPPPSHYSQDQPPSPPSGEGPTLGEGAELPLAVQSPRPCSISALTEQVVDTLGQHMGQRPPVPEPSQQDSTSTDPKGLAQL
# Description: as §1, §2
# P2-purinoceptor = conditions: reported previously for suramin; cited from earlier work
# P2X mRNA = conditions: rat, RP2 mRNA; cited from earlier work
# [2] = molecular target: T3, rat vas deferens P2X receptor (Rattus norvegicus, UniProt P47824); test: radioligand binding in CHO cells stably transfected with rat vas deferens P2X receptor
# T3 construct: cRNA in Xenopus oocytes; stably transfected CHO cells
# T3 sequence (P47824 1-399): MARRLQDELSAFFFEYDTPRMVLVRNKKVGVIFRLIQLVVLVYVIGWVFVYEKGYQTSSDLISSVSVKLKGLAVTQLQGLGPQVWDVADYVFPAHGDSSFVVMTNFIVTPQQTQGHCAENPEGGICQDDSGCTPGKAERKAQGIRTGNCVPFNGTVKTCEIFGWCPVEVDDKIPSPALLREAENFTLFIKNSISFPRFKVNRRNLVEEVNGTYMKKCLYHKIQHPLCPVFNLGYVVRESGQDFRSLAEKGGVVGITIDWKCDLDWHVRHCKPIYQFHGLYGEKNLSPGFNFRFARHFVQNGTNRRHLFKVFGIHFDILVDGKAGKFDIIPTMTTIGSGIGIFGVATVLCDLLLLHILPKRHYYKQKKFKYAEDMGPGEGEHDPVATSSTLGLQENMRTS
# Source text: CHO cells were stably transfected by a method used for other ion channels (Claudio, Meth. Enzymol. 207 391-408 (1992)). Transfection was confirmed by a) electro-physiological recording and b) radioligand binding. […] [^3 H]αβmethyleneATP binding was more than 600 cpm per million transfected cells with less than 80 cpm nonspecific binding.
compound,measurement,setting,value
Cc1ccc(C(=O)Nc2ccc(S(=O)(=O)O)c3cc(S(=O)(=O)O)cc(S(=O)(=O)O)c23)cc1NC(=O)c1cccc(NC(=O)Nc2cccc(C(=O)Nc3cc(C(=O)Nc4ccc(S(=O)(=O)O)c5cc(S(=O)(=O)O)cc(S(=O)(=O)O)c45)ccc3C)c2)c1 [suramin],pKB,mouse vas deferens,5.2
same,"antagonist profile, clone 3 (block)","[1]; Table A, concentration not given",< 40%
same,"sensitivity of ATP-activated currents to antagonism, compared with rat vas deferens/human bladder and PC12 forms",[1]; clone 3 (FIG. 15),much less sensitive to antagonism
same,IC50,PC12 P2X receptor,6 µM
same,pA2,P2-purinoceptor,5.9
C[C@@H]1C[C@H]2[C@@H]3CCC4=CC(=O)C=C[C@]4(C)[C@@]3(F)[C@@H](O)C[C@]2(C)[C@@]1(O)C(=O)CO [dexamethasone],induction of P2X mRNA in immature thymocytes,P2X mRNA,can be induced in immature thymocytes by dexamethasone
[^3 H]αβmethyleneATP,binding,[2],more than 600 cpm per million transfected cells
same,nonspecific binding,[2],less than 80 cpm
